Several values for one entry are separate records, joined by “and”; a condition that tells them apart may be missing. Identical values can stand only once.
Test: Five-day oral gavage exposure: body weight, liver weights, clinical observations
Format: in vivo, Sprague Dawley rats
Settings: for Body Weight Change / Liver Weight / Relative Liver Weight / Absolute Liver Weight / Body Weight Gain: 5 days
Method: The in vivo exposure study was performed under a contract to Jacobs Technology, Inc. (Dallas, TX, USA; EP-C-15-008) and BioSpyder Technologies, Inc. (Carlsbad, CA, USA; 68HE0B20P0250). Animal handling was subcontracted out and performed by Integrated Laboratory Systems (ILS, Morrisville, NC, USA). All procedures followed Animal Welfare Act Regulations 9 CFR 1A, 1–4, and animals were handled and treated according to the Guide for the Care and Use of Laboratory Animals. Male and female Sprague Dawley rats (n = 36/sex) were purchased from Charles River Laboratory (Raleigh, NC, USA) and allowed to acclimate for 7–10 days before initial dosing. Animals were assigned to groups using analysis of variance (ANOVA) to ensure the mean body weights of the groups were not statistically different. Same-sex pairs were housed in polycarbonate cages (23 cm × 44 cm × 21 cm) with hardwood bedding (Northeastern Products Corp., Warrensburg, NY, USA), changed twice per week. Rats were kept in rooms maintained between 20.0 and 25.0 °C and 30.0 and 70.0% humidity while exposed to a 12 h light–dark cycle. Certified Purina Pico Chow No. 5002 (Ralston Purina Co., St. Louis, MO, USA) and reverse osmosis (RO)-treated tap water (City of Durham, NC, USA) were available ad libitum. Rats were 8–10 weeks old at the time of dosing and weighed between 228 and 302 g (males) and 208 and 232 g (females).
Male and female rats (n = 4/sex, dose, and time point) were dosed by gavage (5 mL/kg bodyweight) once daily for five days with water (vehicle control) or HFPO-TeA at eight half-log dose levels ranging from 0.3 to 335.2 mg/kg/day (i.e., 0.3, 0.9, 2.3, 6.3, 17, 45.9, 124, and 335.2). The results reported here are part of a larger study, for which the main purpose was to use benchmark dose–response modeling of transcriptomic data to identify a gene set basis for the point of departure (POD).
Clinical observations were performed prior to first administration and at termination. Moribundity and mortality were assessed twice daily on weekdays and once daily on weekends. Animals found moribund were euthanized by carbon dioxide inhalation and death was confirmed by cervical dislocation.
Whole blood was collected from the retro-orbital plexus under isoflurane anesthesia 2 h following the first dose and by cardiac puncture 24 h after the last dosage. Blood was stored in anticoagulant potassium ethylenediaminetetraacetic acid (K3EDTA)-coated vacutainers, and then processed to isolate plasma via centrifugation. Animals were euthanized via carbon dioxide asphyxiation and subsequent exsanguination. Liver was collected, weighed, cubed, and divided into three aliquots. One aliquot of tissue was flash-frozen in liquid nitrogen and stored at −80 °C for analytical chemistry analyses. The remaining two aliquots were placed in RNALater and frozen for use in the companion transcriptomic study. Liver and plasma samples were received at the U.S. EPA Center for Computational Toxicology and Exposure, Advanced Analytical Chemistry Methods Branch in Research Triangle Park, North Carolina, USA, and stored at −80 °C prior to extraction.

[1] = 0.3 mg/kg/day, F, individual rats
[2] = 0.3 mg/kg/day, F, mean ± SD n=4
[3] = 0.3 mg/kg/day, M, individual rats
[4] = 0.3 mg/kg/day, M, mean ± SD n=4
[5] = 0.9 mg/kg/day, F, individual rats
[6] = 0.9 mg/kg/day, F, mean ± SD n=4
[7] = 0.9 mg/kg/day, M, individual rats
[8] = 0.9 mg/kg/day, M, mean ± SD n=4
[9] = 2.3 mg/kg/day, F, individual rats
[10] = 2.3 mg/kg/day, F, mean ± SD n=4
[11] = 2.3 mg/kg/day, M, individual rats
[12] = 2.3 mg/kg/day, M, mean ± SD n=4
[13] = 6.3 mg/kg/day, F, individual rats
[14] = 6.3 mg/kg/day, F, mean ± SD n=4
[15] = 6.3 mg/kg/day, M, individual rats
[16] = 6.3 mg/kg/day, M, mean ± SD n=4
[17] = 17 mg/kg/day, F, individual rats
[18] = 17 mg/kg/day, M, individual rats

SMILES: O=C(O)C(F)(OC(F)(F)C(F)(OC(F)(F)C(F)(OC(F)(F)C(F)(F)C(F)(F)F)C(F)(F)F)C(F)(F)F)C(F)(F)F (centres unmarked) [HFPO-TeA, perfluoro-(2,5,8-trimethyl-3,6,9-trioxadodecanoic) acid]
- Body Weight Change [1]: 11.3 g and 8.5 g and 1.0 g and 5.1 g
- Liver Weight [1]: 10.2929 g and 10.0087 g and 10.5040 g and 10.1866 g
- Relative Liver Weight [1]: 4.458 g% and 4.431 g% and 4.573 g% and 4.489 g%
- Absolute Liver Weight [2]: 10.25 ± 0.2070 g
- Body Weight Gain [2]: 6.5 ± 4.4 g
- Relative Liver Weight [2]: 4.488 ± 0.062 g%
- Body Weight Change [3]: 28.2 g and 40.1 g and 48.5 g and 32.0 g
- Liver Weight [3]: 13.9494 g and 16.3796 g and 15.4580 g and 15.2495 g
- Relative Liver Weight [3]: 4.953 g% and 4.616 g% and 4.795 g% and 4.445 g%
- Absolute Liver Weight [4]: 15.2591 ± 1.0017 g
- Body Weight Gain [4]: 37.2 ± 9.0 g
- Relative Liver Weight [4]: 4.702 ± 0.220 g%
- Body Weight Change [5]: 8.6 g and 18.4 g and 10.4 g and 11.3 g
- Liver Weight [5]: 12.6621 g and 11.3910 g and 11.9531 g and 11.5466 g
- Relative Liver Weight [5]: 5.327 g% and 5.016 g% and 5.192 g% and 4.809 g%
- Absolute Liver Weight [6]: 11.8882 ± 0.5678 g
- Body Weight Gain [6]: 12.2 ± 4.3 g
- Relative Liver Weight [6]: 5.086 ± 0.224 g%
- Body Weight Change [7]: 46.0 g and 38.3 g and 37.4 g and 36.7 g
- Liver Weight [7]: 16.7977 g and 16.8117 g and 16.3850 g and 18.5738 g
- Relative Liver Weight [7]: 5.241 g% and 5.318 g% and 5.059 g% and 5.544 g%
- Absolute Liver Weight [8]: 17.1421 ± 0.9748 g
- Body Weight Gain [8]: 39.6 ± 4.3 g
- Relative Liver Weight [8]: 5.291 ± 0.201 g%
- Body Weight Change [9]: 21.5 g and 10.9 g and 8.5 g and 8.3 g
- Liver Weight [9]: 12.3341 g and 12.8755 g and 12.0585 g and 12.4504 g
- Relative Liver Weight [9]: 5.372 g% and 5.236 g% and 5.345 g% and 5.231 g%
- Absolute Liver Weight [10]: 12.4296 ± 0.3397 g
- Body Weight Gain [10]: 12.3 ± 6.2 g
- Relative Liver Weight [10]: 5.296 ± 0.073 g%
- Body Weight Change [11]: 37.5 g and 45.8 g and 38.2 g and 34.6 g
- Liver Weight [11]: 17.9851 g and 19.2395 g and 20.9175 g and 18.7875 g
- Relative Liver Weight [11]: 5.558 g% and 5.913 g% and 6.285 g% and 5.910 g%
- Absolute Liver Weight [12]: 19.2324 ± 1.2374 g
- Body Weight Gain [12]: 39.0 ± 4.8 g
- Relative Liver Weight [12]: 5.916 ± 0.297 g%
- Body Weight Change [13]: -11.8 g and -21.3 g and -2.2 g and -35.7 g
- Liver Weight [13]: 10.2774 g and 9.4969 g and 12.9764 g and 9.4275 g
- Relative Liver Weight [13]: 4.807 g% and 5.025 g% and 6.242 g% and 5.243 g%
- Absolute Liver Weight [14]: 10.5446 ± 1.6664 g
- Body Weight Gain [14]: -17.8 ± 14.3 g
- Relative Liver Weight [14]: 5.329 ± 0.634 g%
- Body Weight Change [15]: 27.5 g and 43.2 g and 31.7 g and 24.7 g
- Liver Weight [15]: 19.3187 g and 25.7576 g and 22.4062 g and 22.3377 g
- Relative Liver Weight [15]: 6.254 g% and 7.468 g% and 6.965 g% and 7.243 g%
- Absolute Liver Weight [16]: 22.4551 ± 2.6306 g
- Body Weight Gain [16]: 31.8 ± 8.1 g
- Relative Liver Weight [16]: 6.983 ± 0.527 g%
- Body Weight Change [17]: -62.7 g and -52.1 g and -49.6 g and -56.3 g
- Liver Weight [17]: 9.7114 g and 9.8972 g and 9.1738 g and 9.9260 g
- Relative Liver Weight [17]: 6.002 g% and 5.659 g% and 5.567 g% and 5.958 g%
- Absolute Liver Weight (17 mg/kg/day, F, mean ± SD n=4): 9.6771 ± 0.3488 g
- Body Weight Gain (17 mg/kg/day, F, mean ± SD n=4): -55.2 ± 5.7 g
- Relative Liver Weight (17 mg/kg/day, F, mean ± SD n=4): 5.796 ± 0.216 g%
- Body Weight Change [18]: -36.3 g and -50.7 g and -59.7 g and -59.2 g
- Liver Weight [18]: 13.4969 g and 13.8697 g and 12.4995 g and 13.1122 g
- Relative Liver Weight [18]: 5.386 g% and 5.593 g% and 5.511 g% and 5.909 g%
- Absolute Liver Weight (17 mg/kg/day, M, mean ± SD n=4): 13.2446 ± 0.5851 g
- Body Weight Gain (17 mg/kg/day, M, mean ± SD n=4): -51.5 ± 10.9 g
- Relative Liver Weight (17 mg/kg/day, M, mean ± SD n=4): 5.600 ± 0.223 g%
- Abnormal clinical observations (female rats, 6.3 mg/kg/day dose group): piloerection and thinness
- Abnormal clinical observations (in addition) (female rats, 17 mg/kg/day dose group): coldness to touch and hunching
- Abnormal clinical observations (alongside previous signs) (female rats, 45.9 mg/kg/day): Abnormal breathing
- Abnormal clinical observations (female rats, 124 mg/kg/day): decreased movement and lethargy
- Abnormal clinical observations (male rats, 17 and 45.9 mg/kg/day dose groups): lethargy, piloerection, thinness, hunching, coldness to touch, abnormal breathing, and decreased movement
